Test results as given in PubChem BioAssay (NCI).
“And” between values parts separate entries of the source, which are not always exact repeats. Equal entries are not always repeated.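 Compound exposure: 48 hours, 5 concentrations, 96-well plates. GI50 marks 50% less growth. TGI is the concentration that stops growth completely.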

Legend:
Experiment in all cases: inhibition of tumour cell growth, NCI panel, 48 h
A498 renal = test system: A498 renal
COLO 205 colon = test system: COLO 205 colon
DLD-1 colon = test system: DLD-1 colon
DMS 273 small cell lung = test system: DMS 273 small cell lung
KM12 colon = test system: KM12 colon
LXFL 529 NSCLC = test system: LXFL 529 NSCLC
MOLT-4 leukemia = test system: MOLT-4 leukemia
OVCAR-4 ovarian = test system: OVCAR-4 ovarian
SK-MEL-2 melanoma = test system: SK-MEL-2 melanoma
SNB-75 CNS = test system: SNB-75 CNS
MDA-MB-231 breast = test system: MDA-MB-231 breast

Row | Structure (SMILES) | TGI (A498 renal) | TGI (COLO 205 colon) | TGI (DLD-1 colon) | TGI (DMS 273 small cell lung) | TGI (KM12 colon) | TGI (LXFL 529 NSCLC) | TGI (MOLT-4 leukemia) | TGI (OVCAR-4 ovarian) | TGI (SK-MEL-2 melanoma) | TGI (SNB-75 CNS) | GI50 (A498 renal) | GI50 (COLO 205 colon) | GI50 (KM12 colon) | GI50 (MDA-MB-231 breast) | TGI (MDA-MB-231 breast) | GI50 (MOLT-4 leukemia) | GI50 (OVCAR-4 ovarian) | GI50 (SK-MEL-2 melanoma) | GI50 (SNB-75 CNS)
1 | COC(=O)C(=O)C(C#N)c1cccc(Cl)c1 (centres undefined) | > 100 µM | > 100 µM | > 100 µM | > 100 µM | > 100 µM | > 100 µM | > 100 µM | > 100 µM | > 100 µM | > 100 µM | – | – | – | – | – | – | – | – | –
2 | Cc1cc(O[C@@H]2O[C@@H](C)[C@H](O)[C@@H](O)[C@H]2O)c2c3c(c(O[C@@H]4O[C@@H](C)[C@H](O)[C@@H](O)[C@H]4O)cc2c1)C(=O)c1c(O)cccc1C3=O | > 30 µM | > 30 µM | – | – | > 30 µM | – | > 30 µM | > 30 µM | > 30 µM | > 30 µM | > 30000 nM | > 30 µM | > 30000 nM | > 30 µM | > 30 µM | > 30000 nM | > 30 µM | > 30 µM | > 30 µM
3 | O=C(Nc1ccc(Oc2ccc(NC(=O)Nc3ccccc3Cl)cc2)cc1)Nc1ccccc1Cl | 64.3 µM | > 100 µM | – | – | > 100 µM | – | 32.9 µM | 24.4 µM | > 20.4 µM | 37.3 µM | 22200 nM | 15.7 µM | > 100000 nM | 9.4 µM | 29.6 µM | 12100 nM | 2.71 µM | 8.17 µM | 12.2 µM
4 | Cc1ccc(/C=C(/C#N)n2nnc3ncccc32)cc1 | 7.51 µM | 10.5 µM | – | – | 14.9 µM | – | 19 µM | 15.8 µM | 8.66 µM | > 100 µM | 2280 nM | 2.25 µM | 2110 nM | 2.41 µM | 8.44 µM | 3410 nM | 2.14 µM | 2.47 µM | 2.98 µM
5 | CS(=O)(=O)c1ccc2c(c1)C(=O)c1c-2n(CCCBr)c(=O)c2cc([N+](=O)[O-])ccc12 | 14.8 µM | > 100 µM | – | – | > 100 µM | – | > 100 µM | > 100 µM | 43.8 µM | 42.2 µM | 127 nM | > 100 µM | > 100000 nM | 51.1 µM | > 100 µM | 1940 nM | 47.4 µM | 19.6 µM | 12.8 µM
6 | CCC1(OC(=O)CNC)C(=O)OCc2c1cc1n(c2=O)Cc2cc3ccccc3nc2-1 (centres undefined) | 0.104 µM | 1.54 µM | 26.8 µM | < 0.0144 µM | 1.46 µM | 3.64 µM | 0.0631 µM | 0.493 µM | 0.577 µM | 0.0842 µM | – | – | – | – | 3.94 µM | – | – | – | –
7 | CC(C)(C)[Si](C)(C)OC1[C@@H](O[Si](C)(C)C(C)(C)C)[C@@H](CNC(=O)NC(=O)NC(=O)CCl)O[C@H]1n1cnc2c(NC(=O)Nc3ccccc3)ncnc21 (some centres undefined) | 13.3 µM | 13 µM | – | – | 6.12 µM | – | 2.53 µM | 10.5 µM | 17.6 µM | 13.9 µM | 6460 nM | 6.3 µM | 1840 nM | 1.31 µM | 3.76 µM | 1170 nM | 3.31 µM | 8.62 µM | 5.84 µM
8 | c1ccc(COCC[P+](c2ccccc2)(c2ccccc2)c2ccccc2)cc1 | 5.93 µM | 3.65 µM | – | – | 11.1 µM | – | 12.4 µM | 12.2 µM | 4.96 µM | 6.76 µM | 1330 nM | 0.868 µM | 501 nM | 2.36 µM | 14.2 µM | 2100 nM | 0.444 µM | 1.93 µM | 1.44 µM
9 | O=C(/C=C\c1cc(Br)ccc1O)/C=C/c1cc(Br)ccc1O | 3.26 µM | 3.69 µM | – | – | 2.72 µM | – | 12 µM | 6.87 µM | 6.15 µM | 2.8 µM | 1650 nM | 1.55 µM | 1250 nM | 0.372 µM | 4.07 µM | 316 nM | 1.21 µM | 2.25 µM | 1.34 µM
10 | Cc1ccc(S(=O)(=O)OCC(=O)Nc2ccc(C(=O)O)c(O)c2)cc1 | 105 µM | 259 µM | – | – | 199 µM | – | 87.9 µM | 143 µM | 203 µM | 185 µM | 36400 nM | 113 µM | 73600 nM | 25.9 µM | 99.6 µM | 16500 nM | 26.8 µM | 50.2 µM | 47.3 µM
11 | CC12CCCC(C#N)(C1)OC2=O (centres undefined) | > 100 µM | – | > 100 µM | > 100 µM | > 100 µM | > 100 µM | > 100 µM | > 100 µM | > 100 µM | > 100 µM | – | – | – | – | – | – | – | – | –
12 | CCCCCCCCCCCCNC(=O)N[C@H](C(=O)N[C@H]1/C=C/CCNC(=O)/C=C/[C@H](C)NC1=O)C(C)C | 0.362 µM | 0.109 µM | – | – | 0.0519 µM | – | 1.13 µM | 2.12 µM | 0.627 µM | 0.155 µM | 64.9 nM | 0.0309 µM | 22.2 nM | 0.0709 µM | 0.277 µM | 44.8 nM | 0.104 µM | 0.207 µM | 0.0345 µM
13 | CON=C1C[C@]2(C[C@@H]3C[C@@H](C/C=C(\C)C[C@@H](C)/C=C/C=C4\CO[C@@H]5[C@H](O)C(C)=C[C@@H](C(=O)O3)[C@]45O)O2)O[C@H](/C(C)=C/C(C)C)[C@H]1C | 22.9 µM | 28.5 µM | – | – | 21.9 µM | – | 8.53 µM | 29.7 µM | 32.5 µM | 35.3 µM | 10500 nM | 13.7 µM | 8100 nM | 11.2 µM | 24.9 µM | 3020 nM | 16 µM | 15.4 µM | 18.7 µM
14 | O=C(O)c1ccc(NCc2nc3ccccc3[nH]2)cc1 | > 100 µM | > 100 µM | – | – | > 100 µM | – | > 100 µM | > 100 µM | > 100 µM | > 100 µM | – | > 100 µM | > 100000 nM | > 100 µM | > 100 µM | > 100000 nM | > 100 µM | > 100 µM | > 100 µM
15 | C=C[C@H]1CN2CCc3c([nH]c4c([C@@H]5CCCN5C)c(O)ccc34)[C@@H]2C[C@@H]1C[C@H]1c2[nH]c3ccccc3c2CCN1C | 3.11 µM and 3.44 µM | 3.09 µM and 2.64 µM and 3.04 µM | – | – | 2.61 µM and 2.99 µM | – | – | 3.2 µM | 3.37 µM | 2.47 µM | – | – | 1150 nM | – | 3.16 µM and 3.46 µM | 412 nM | – | – | –
